Measurements from patent publication US20250270180A1, “MEK INHIBITORS AND THERAPEUTIC USES THEREOF” (Immuneering Corporation, priority 2020, published 2025).
Where two headings read alike, the source gives them in different places.

Key:
[1] = Microsome stability, human; assay type: in vitro ADME; details: microsomes, 2 μM
[2] = Microsome stability, beagle dog; assay type: in vitro ADME; details: microsomes, 2 μM
Plasma stability, human = assay type: in vitro ADME; details: 2 μM
[3] = Plasma stability, beagle dog; assay type: in vitro ADME; details: 2 μM
[4] = Plasma stability, CD-1 mouse; assay type: in vitro ADME; details: 2 μM
CYP450 1A2 = biological target: T1, CYP450 1A2 (Homo sapiens, UniProt P05177); experiment: CYP450 panel, 1A2; assay type: in vitro ADME; details: 10 μM; substrate phenacetin
T1 sequence (P05177 1-516): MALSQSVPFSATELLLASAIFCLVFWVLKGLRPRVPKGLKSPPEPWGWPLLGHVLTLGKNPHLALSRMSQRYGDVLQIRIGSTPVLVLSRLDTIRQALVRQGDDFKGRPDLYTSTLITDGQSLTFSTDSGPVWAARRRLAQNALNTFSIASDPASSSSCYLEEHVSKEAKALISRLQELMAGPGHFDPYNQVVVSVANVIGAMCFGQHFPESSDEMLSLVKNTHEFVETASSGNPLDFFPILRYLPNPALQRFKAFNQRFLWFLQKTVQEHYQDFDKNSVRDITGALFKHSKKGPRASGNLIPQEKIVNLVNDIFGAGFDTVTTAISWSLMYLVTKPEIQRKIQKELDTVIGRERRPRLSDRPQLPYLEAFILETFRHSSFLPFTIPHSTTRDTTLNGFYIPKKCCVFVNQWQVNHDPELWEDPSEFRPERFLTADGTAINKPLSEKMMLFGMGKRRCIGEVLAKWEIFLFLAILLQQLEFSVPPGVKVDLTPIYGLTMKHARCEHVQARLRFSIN

[5] = Pharmacokinetics, single dose, 2-hour tissue levels in Colon26 tumor bearing mice; assay type: in vivo; details: single dose 100 mg/kg p.o., 2-hour post dose; for concentration at 2 h: female, athymic BALB/c nude or BALB/c, mouse, po
Protocol: Female mice (either athymic BALC/c nude, or BALB/c mice) were inoculated with a single subcutaneous injection of 0.2 ml of mouse Colon-26 cell suspension (1×10^5 cells per animal) in the inguinal region. Colon26 (C26) tumor bearing mice received a single dose (3 mice/treatment) of vehicle (10% DMSO/90% [20% SBE-β-CD in saline], pH 5) containing compounds at 100 mg/kg by gavage (p.o.) and 2-hour post dose humanely euthanized.
Blood was obtained through cardiac puncture into K+EDTA tubes, mixed by inversion and centrifuged to obtain the plasma. Tissues were excised, cleaned of surrounding tissues. All samples immediately snap frozen in liquid N2 prior to LC-MS/MS analysis (using Waters HSS T3 2.1×50 mm (1.8 um) LC column, and an API-6500 Electrospray MS unit).

A549 pERK = experiment: A549-pERK, 2 h (quantitative Western, Jess); assay type: cell-based; details: Homo sapiens, A549, 2 h, 10 nM, phospho:total ratio normalized to DMSO control
Summary of the method: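 Cells treated in duplicate for 2 h with compound, lysed and protein-normalised (1 mg/mL pERK, 1.5 mg/mL pMEK). Quantitative capillary Western; phospho/total protein ratio normalised to DMSO.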

[6] = test system: A549 CRAF BP (MEK phosphorylation); experiment: A549-CRAF BP 100 nM, 2 h (pMEK); assay type: cell-based; details: Homo sapiens, A549, 2 h, phospho:total ratio normalized to DMSO control
Protocol: A549 or […] cells were treated in duplicate for two hours with compounds at varying concentrations. After two hours, the cells were lysed, snap frozen, and stored at −80° C. After storage, the lysate was quantified with the Bradford assay. Before the lysates were prepared to run on the Jess, the lysates were diluted to 1 mg/mL for pERK analysis and 1.5 mg/mL pMEK analysis using quantitative Western blotting. ERK and MEK phosphorylation levels were estimated by taking the ratio of phospho-protein to total protein and normalizing to the DMSO control. The results of this study are described in Tables 14-16.

hERG Channel = hERG Channel (Homo sapiens, UniProt Q12809); experiment: cell-based
Sequence of hERG Channel (Q12809 whole entry): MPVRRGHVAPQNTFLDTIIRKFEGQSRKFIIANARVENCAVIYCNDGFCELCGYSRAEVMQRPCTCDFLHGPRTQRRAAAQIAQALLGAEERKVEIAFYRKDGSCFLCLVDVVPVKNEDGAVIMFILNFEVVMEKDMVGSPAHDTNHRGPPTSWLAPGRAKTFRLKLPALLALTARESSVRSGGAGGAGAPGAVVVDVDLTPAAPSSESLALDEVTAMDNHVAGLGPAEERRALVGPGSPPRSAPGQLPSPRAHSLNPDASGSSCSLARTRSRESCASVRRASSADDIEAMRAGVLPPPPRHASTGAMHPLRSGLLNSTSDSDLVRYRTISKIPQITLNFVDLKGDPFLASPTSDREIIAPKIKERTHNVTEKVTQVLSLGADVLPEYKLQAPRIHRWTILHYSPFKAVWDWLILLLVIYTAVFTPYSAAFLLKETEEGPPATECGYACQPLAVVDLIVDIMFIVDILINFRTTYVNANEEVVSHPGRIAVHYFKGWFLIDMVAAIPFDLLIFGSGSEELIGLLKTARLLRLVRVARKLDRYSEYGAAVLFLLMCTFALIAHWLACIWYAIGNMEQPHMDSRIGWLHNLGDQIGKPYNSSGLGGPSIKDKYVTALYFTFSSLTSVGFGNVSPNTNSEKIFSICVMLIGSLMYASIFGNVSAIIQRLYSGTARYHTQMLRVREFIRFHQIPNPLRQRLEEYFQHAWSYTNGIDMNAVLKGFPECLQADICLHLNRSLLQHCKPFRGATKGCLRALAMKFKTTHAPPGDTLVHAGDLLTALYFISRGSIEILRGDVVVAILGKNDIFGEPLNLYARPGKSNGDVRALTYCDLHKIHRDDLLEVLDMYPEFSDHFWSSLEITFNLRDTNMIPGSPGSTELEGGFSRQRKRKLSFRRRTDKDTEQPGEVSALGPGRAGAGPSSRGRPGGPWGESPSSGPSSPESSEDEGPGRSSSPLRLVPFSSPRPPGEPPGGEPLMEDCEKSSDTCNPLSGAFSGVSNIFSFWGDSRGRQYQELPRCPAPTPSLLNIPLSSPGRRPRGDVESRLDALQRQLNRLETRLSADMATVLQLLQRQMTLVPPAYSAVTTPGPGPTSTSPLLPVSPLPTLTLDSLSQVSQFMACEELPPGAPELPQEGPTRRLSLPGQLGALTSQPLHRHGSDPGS

CYP450 2B6 = biological target: T2, CYP450 2B6 (Homo sapiens, UniProt P20813); experiment: CYP450 panel, 2B6; details: 10 μM; substrate bupropion
T2 sequence (P20813 1-491): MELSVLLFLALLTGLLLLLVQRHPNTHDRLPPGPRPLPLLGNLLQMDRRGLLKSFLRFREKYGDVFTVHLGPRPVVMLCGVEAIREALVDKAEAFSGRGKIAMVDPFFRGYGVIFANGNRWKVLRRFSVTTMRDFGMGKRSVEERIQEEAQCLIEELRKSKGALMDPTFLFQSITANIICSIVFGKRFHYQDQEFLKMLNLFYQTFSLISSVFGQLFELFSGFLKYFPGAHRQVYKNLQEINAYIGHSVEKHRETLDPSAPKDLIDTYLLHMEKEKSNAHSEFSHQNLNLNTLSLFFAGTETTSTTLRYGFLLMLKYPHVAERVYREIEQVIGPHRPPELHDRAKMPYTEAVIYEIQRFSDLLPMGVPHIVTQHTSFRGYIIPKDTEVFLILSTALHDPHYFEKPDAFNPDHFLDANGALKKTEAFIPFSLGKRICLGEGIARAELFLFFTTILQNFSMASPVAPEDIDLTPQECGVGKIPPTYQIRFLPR

CYP450 2C8 = biological target: T3, CYP450 2C8 (Homo sapiens, UniProt P10632); experiment: CYP450 panel, 2C8; details: 10 μM; substrate amodiaquine
T3 sequence (P10632 1-490): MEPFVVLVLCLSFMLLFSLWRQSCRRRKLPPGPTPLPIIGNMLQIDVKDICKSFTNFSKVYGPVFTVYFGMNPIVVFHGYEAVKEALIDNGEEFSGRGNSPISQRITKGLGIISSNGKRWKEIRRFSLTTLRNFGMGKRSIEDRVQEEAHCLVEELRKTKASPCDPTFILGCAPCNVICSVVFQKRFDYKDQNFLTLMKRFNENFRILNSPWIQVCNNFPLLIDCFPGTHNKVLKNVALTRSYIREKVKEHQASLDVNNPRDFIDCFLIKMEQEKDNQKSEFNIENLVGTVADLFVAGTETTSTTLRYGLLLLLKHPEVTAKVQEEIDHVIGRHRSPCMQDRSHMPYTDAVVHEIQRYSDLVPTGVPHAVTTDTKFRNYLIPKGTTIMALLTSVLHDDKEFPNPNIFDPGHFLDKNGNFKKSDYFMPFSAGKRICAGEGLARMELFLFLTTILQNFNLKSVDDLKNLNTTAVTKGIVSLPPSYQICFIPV

CYP450 2C9 = CYP450 2C9 (Homo sapiens, UniProt P11712); experiment: CYP450 panel, 2C9; details: 10 μM; substrate Diclofenac
Sequence of CYP450 2C9 (P11712 whole entry): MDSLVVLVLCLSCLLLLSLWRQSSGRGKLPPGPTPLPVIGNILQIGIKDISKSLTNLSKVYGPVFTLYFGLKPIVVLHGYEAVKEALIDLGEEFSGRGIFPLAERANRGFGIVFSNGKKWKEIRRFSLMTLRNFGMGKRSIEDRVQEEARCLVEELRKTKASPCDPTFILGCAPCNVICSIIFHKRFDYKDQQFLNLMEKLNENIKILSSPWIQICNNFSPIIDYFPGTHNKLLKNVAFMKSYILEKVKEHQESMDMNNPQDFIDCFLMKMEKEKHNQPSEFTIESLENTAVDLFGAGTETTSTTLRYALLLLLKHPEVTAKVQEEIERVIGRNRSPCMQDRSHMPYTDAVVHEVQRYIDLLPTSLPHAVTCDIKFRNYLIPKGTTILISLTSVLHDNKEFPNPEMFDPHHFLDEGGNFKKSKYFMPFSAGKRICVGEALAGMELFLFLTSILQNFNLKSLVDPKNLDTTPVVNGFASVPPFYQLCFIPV

CYP450 2D6 = CYP450 2D6 (Homo sapiens, UniProt P10635); experiment: CYP450 panel, 2D6; details: 10 μM; substrate dextromethophan
Sequence of CYP450 2D6 (P10635 whole entry): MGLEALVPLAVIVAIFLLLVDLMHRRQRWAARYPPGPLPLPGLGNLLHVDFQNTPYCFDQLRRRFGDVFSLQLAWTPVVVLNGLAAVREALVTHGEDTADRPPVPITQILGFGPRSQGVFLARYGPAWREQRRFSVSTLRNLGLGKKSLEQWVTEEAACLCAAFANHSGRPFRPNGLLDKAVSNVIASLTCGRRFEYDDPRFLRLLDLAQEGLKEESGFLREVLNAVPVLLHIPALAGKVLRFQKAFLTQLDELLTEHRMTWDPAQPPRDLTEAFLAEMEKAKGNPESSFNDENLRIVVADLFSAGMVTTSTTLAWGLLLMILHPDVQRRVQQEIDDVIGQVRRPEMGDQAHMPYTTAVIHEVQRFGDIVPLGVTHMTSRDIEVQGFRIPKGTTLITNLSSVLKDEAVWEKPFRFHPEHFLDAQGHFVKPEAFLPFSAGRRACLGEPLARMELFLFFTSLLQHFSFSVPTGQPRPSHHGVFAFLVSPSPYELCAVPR

CYP450 3A4 = CYP450 3A4 (Homo sapiens, UniProt P08684); experiment: CYP450 panel, 3A4; details: 10 μM; for 3A4*: substrate midazolam; for 3A4^: substrate testosterone
Sequence of CYP450 3A4 (P08684 whole entry): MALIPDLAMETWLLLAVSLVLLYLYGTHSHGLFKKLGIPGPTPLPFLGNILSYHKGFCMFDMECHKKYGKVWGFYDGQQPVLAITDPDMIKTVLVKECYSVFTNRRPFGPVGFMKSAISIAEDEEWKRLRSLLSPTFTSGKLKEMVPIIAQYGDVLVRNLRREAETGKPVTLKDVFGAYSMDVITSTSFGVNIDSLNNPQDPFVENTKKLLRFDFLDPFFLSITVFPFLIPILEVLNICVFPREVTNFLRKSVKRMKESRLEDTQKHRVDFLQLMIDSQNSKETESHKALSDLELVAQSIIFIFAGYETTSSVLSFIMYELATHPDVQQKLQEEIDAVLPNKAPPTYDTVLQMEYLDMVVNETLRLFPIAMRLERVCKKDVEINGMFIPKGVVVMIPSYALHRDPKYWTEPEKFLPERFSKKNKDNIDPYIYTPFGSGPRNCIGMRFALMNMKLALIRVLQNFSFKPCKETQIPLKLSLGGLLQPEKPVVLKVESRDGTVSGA

CYP450 2C19 = CYP450 2C19 (Homo sapiens, UniProt P33261); experiment: CYP450 panel, 2C19; details: 10 μM; substrate mephenytoin
Sequence of CYP450 2C19 (P33261 whole entry): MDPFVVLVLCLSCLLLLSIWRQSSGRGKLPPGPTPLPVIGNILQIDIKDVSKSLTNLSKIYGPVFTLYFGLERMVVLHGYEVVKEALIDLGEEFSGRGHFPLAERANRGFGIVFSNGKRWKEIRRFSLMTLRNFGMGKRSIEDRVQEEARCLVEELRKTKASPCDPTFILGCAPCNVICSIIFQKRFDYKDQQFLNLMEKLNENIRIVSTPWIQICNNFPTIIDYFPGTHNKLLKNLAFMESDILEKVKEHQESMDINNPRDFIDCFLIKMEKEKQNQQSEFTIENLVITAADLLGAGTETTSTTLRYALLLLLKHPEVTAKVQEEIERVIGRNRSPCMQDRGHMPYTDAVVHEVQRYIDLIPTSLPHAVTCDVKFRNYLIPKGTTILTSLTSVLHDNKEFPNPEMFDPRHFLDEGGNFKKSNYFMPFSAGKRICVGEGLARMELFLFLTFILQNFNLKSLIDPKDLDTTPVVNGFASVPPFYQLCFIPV

[7] = Microsome stability, CD-1 mouse; details: microsomes, 2 μM
[8] = Absorption & efflux: Caco-2 permeability; details: human
[9] = Caco-2, A-B Permeability Ranking
[10] = Caco-2, Mean Papp A-B (10^−6 cm/s)

## C#CCNCc1c(Cc2cccc(NS(=O)(=O)NC)c2F)c(=O)oc2cc(OC(=O)N(C)C)ccc12 [Compound 14]
[1]
  Human (% Reamining @1 hour): 38.1%
[2]
  Beagle Dog (% Reamining @1 hour): 51.6%
Plasma stability, human
  Human (% Reamining @2 hour): 96.0%
[3]
  Beagle Dog (% Reamining @2 hour): 91.2%
[4]
  CD-1 Mouse (% Reamining @2 hour): 95.0%
CYP450 1A2
  1A2*: 6.3
[5]; liver, read-out: Liver
  concentration at 2 h: 17.8 ng/g
[5]; muscle, read-out: Muscle
  concentration at 2 h: 19 ng/g
[5]; plasma, read-out: Plasma
  concentration at 2 h: 18.5 ng/mL
[5]; tumor, read-out: Tumor
  concentration at 2 h: 2.68 ng/g
A549 pERK
  activity at 0.01 µM: 64%
[6]
  activity at 0.1 µM: 59.1%
hERG Channel
  IC50: 19.4 µM
CYP450 2B6
  2B6*: 15.6
CYP450 2C8
  2C8*: 8.4
CYP450 2C9
  2C9*: 8.2
CYP450 2D6
  2D6*: 6.6
CYP450 3A4
  3A4*: 26.7
  3A4^: 39.3
CYP450 2C19
  2C19*: 4.0
[7]
  CD-1 Mouse (% Reamining @1 hour): 13.2%
[8]
  Papp B→A at 2 h, 10 μM: 26.1 ×10⁻⁶ cm/s
  efflux ratio at 2 h, 10 μM: 2.8
[8]; [9]
  Papp A→B at 2 h, 10 μM: > 1 ×10⁻⁶ cm/s
[8]; [10]
  Papp A→B at 2 h, 10 μM: 9.34 ×10⁻⁶ cm/s

## CNS(=O)(=O)Nc1cccc(Cc2c(CN3CCNCC3)c3ccc(OC(=O)N(C)C)cc3oc2=O)c1F [Compound 10]
[1]
  Human (% Reamining @1 hour): 80.1%
[2]
  Beagle Dog (% Reamining @1 hour): 73.9%
Plasma stability, human
  Human (% Reamining @2 hour): 92.1%
[3]
  Beagle Dog (% Reamining @2 hour): 96.2%
[4]
  CD-1 Mouse (% Reamining @2 hour): 97.7%
CYP450 1A2
  1A2*: 0.4
A549 pERK
  activity at 0.01 µM: 27.7%
[6]
  activity at 0.1 µM: 42.2%
hERG Channel
  IC50: > 30 µM
CYP450 2B6
  2B6*: 22.4
CYP450 2C8
  2C8*: −1.0
CYP450 2C9
  2C9*: 1.8
CYP450 2D6
  2D6*: −3.4
CYP450 3A4
  3A4*: 17.3
  3A4^: 16.2
CYP450 2C19
  2C19*: 4.8
[7]
  CD-1 Mouse (% Reamining @1 hour): 91.3%
[8]
  Papp B→A at 2 h, 10 μM: 3.8 ×10⁻⁶ cm/s
  efflux ratio at 2 h, 10 μM: 56.3
[8]; [9]
  Papp A→B at 2 h, 10 μM: < 1 ×10⁻⁶ cm/s
[8]; [10]
  Papp A→B at 2 h, 10 μM: 0.0676 ×10⁻⁶ cm/s

## CNS(=O)(=O)Nc1cccc(Cc2c(CN3CCN(Cc4ccccc4)CC3)c3ccc(OC(=O)N(C)C)cc3oc2=O)c1F [Compound 16]
[1]
  Human (% Reamining @1 hour): 1.4%
[2]
  Beagle Dog (% Reamining @1 hour): 0.4%
Plasma stability, human
  Human (% Reamining @2 hour): 99.0%
[3]
  Beagle Dog (% Reamining @2 hour): 101.2%
[4]
  CD-1 Mouse (% Reamining @2 hour): 92.7%
CYP450 1A2
  1A2*: 6.9
A549 pERK
  activity at 0.01 µM: 91.6%
hERG Channel
  IC50: 0.1 µM
CYP450 2B6
  2B6*: 11.6
CYP450 2C8
  2C8*: 45.5
CYP450 2C9
  2C9*: 42.4
CYP450 2D6
  2D6*: 55.0
CYP450 3A4
  3A4*: 75.1
  3A4^: 92.1
CYP450 2C19
  2C19*: 88.4
[7]
  CD-1 Mouse (% Reamining @1 hour): 0.6%
[8]
  Papp B→A at 2 h, 10 μM: 5.61 ×10⁻⁶ cm/s
  efflux ratio at 2 h, 10 μM: 0.743
[8]; [9]
  Papp A→B at 2 h, 10 μM: > 1 ×10⁻⁶ cm/s
[8]; [10]
  Papp A→B at 2 h, 10 μM: 7.55 ×10⁻⁶ cm/s

## CNS(=O)(=O)Nc1cccc(Cc2c(CNCC#N)c3ccc(OC(=O)N(C)C)cc3oc2=O)c1F [Compound 13]
[1]
  Human (% Reamining @1 hour): 57.7%
[2]
  Beagle Dog (% Reamining @1 hour): 69.6%
Plasma stability, human
  Human (% Reamining @2 hour): 87.3%
[3]
  Beagle Dog (% Reamining @2 hour): 95.9%
[4]
  CD-1 Mouse (% Reamining @2 hour): 87.1%
CYP450 1A2
  1A2*: 6.5
[5]; liver, read-out: Liver
  concentration at 2 h: 36.6 ng/g
[5]; tumor, read-out: Tumor
  concentration at 2 h: 26 ng/g
[5]
  Muscle: BQL
  Plasma: BQL
hERG Channel
  IC50: > 30 µM
CYP450 2B6
  2B6*: 15.8
CYP450 2C8
  2C8*: 6.2
CYP450 2C9
  2C9*: −4.6
CYP450 2D6
  2D6*: −2.6
CYP450 3A4
  3A4*: 25.7
  3A4^: 34.9
CYP450 2C19
  2C19*: 6.2
[7]
  CD-1 Mouse (% Reamining @1 hour): 16.8%
[8]
  Papp B→A at 2 h, 10 μM: 20 ×10⁻⁶ cm/s
  efflux ratio at 2 h, 10 μM: 5.57
[8]; [9]
  Papp A→B at 2 h, 10 μM: > 1 ×10⁻⁶ cm/s
[8]; [10]
  Papp A→B at 2 h, 10 μM: 3.59 ×10⁻⁶ cm/s
